Measurements: paper PMC5770468, “Cardiac glycoside/aglycones inhibit HIV-1 gene expression by a mechanism requiring MEK1/2-ERK1/2 signaling” (Scientific Reports, 2018)

How the values were obtained:
HIV-1 Gag-GFP expression = assay: Recovery of HIV-1 Gag-GFP expression by pathway inhibitors in the presence of CSs, HeLa rtTA-HIV(Gag-GFP) cells; format: cell-based; conditions: 12 μM U0126; 5.5 μM Selumetinib; 10 μM LY294002; 5 µM KB-R7943; CSs at ~IC80
Procedure: (§1) Figure 5 Effect of modulating NKA expression, [Ca^2+]i, and PI3K-AKT on HIV-1 gene expression. Depletion of the NKA perturbs HIV-1 RNA processing (n ≥ 3, mean, s.e.m.). HeLa rtTA-HIV(Gag-GFP) cells were transduced with two shRNAs (E6/E10) to knockdown expression of the NKA α1 subunit and their effect on HIV-1 gene expression analyzed. After positive selection of cells with puromycin for 24–48 h, HIV-1 expression was Dox induced for 20 h, and cells harvested for analyses. Total mRNA (and protein) was isolated from cells, reverse transcribed, and analyzed by qRT-PCR and data normalized to β-actin (a,c). Results are shown relative to Stuffer (+). (a) Expression levels of NKA α1 mRNAs assayed by qRT-PCR. (b) HIV-1 Gag expression assayed by p24^CA ELISA of cell lysates (40 μg). (c) Accumulation of HIV-1 US (black), SS (white), and MS (gray) mRNAs quantified by qRT-PCR. (d–g) CSs suppress HIV-1 gene expression independent of intracellular Ca^2+ flux/signaling and PI3K-AKT activation. HeLa rtTA-HIV(Gag-GFP) cells were pre-treated with either a chelator of [Ca^2+]i (5 µM BAPTA-AM, [Ca2+]ii), inhibitors of NCX Ca^2+-entry (5 µM KB-R7943, NCXi) or PI3K (10 μM LY294002, PI3Ki), or untreated (DMSO, no pathway inhibitor) for ~2 h prior to treatment with ~IC80s of CSs or DMSO for 4 h, and Dox induced for ~20 h. The pathway used by a CS to inhibit HIV-1 expression was determined by monitoring for recovery of Gag-GFP expression by measuring GFP fluorescence in cell lysates (and initially by plate scans of live/fixed cells, Supplementary Fig. S7a and S8c). (d) Levels of [Ca^2+]i measured by Fura Red AM™ (n ≥ 4, mean, s.e.m.). (e–f) Quantification of Gag-GFP expression by reducing SDS-PAGE in lysates (35 μg) of cells which were pre-treated with/without KB-R7943 (n ≥ 3–4 mean, s.e.m.). […] (g) Graph quantitating Gag expression by p24^CA ELISA in lysates of cells (35 μg) that were pre-treated with/without LY294002 (n ≥ 3, mean, s.e.m.). Statistical comparisons in (a–g) were performed as illustrated (black/gray dashed lines) or described in Methods.
Figure 6 CSs control HIV-1 gene expression through intracellular signaling. HeLa rtTA-HIV(Gag-GFP) cells were pre-treated with/without pathway inhibitor overnight (~15 h) and treated with ~IC80s of CSs. […] Graphs quantifying the activation level (phospho/total protein) of each MAP/MAPK by western blot. […] The signaling pathway(s) used by a CS to inhibit HIV-1 expression was determined by detecting Gag-GFP fluorescence in cell lysates (~35 μg) by reducing SDS-PAGE after pre-treatment of cells with a MEK1/2 (12 μM U0126, white), p38α/β/β2 (15 μM SB203580/p38i, gray), or JNK1/2/3 (1.25 μM SP600125/JNKi, hatched) inhibitor (n ≥ 5–7, 4–8, and 3–7, resp., mean, s.e.m.). […]

[Ca^2+]i = Intracellular Ca2+ by Fura Red AM in HeLa rtTA-HIV(Gag-GFP) cells; format: cell-based, human; conditions: 5 µM pre-treatment ~2 h
Procedure: as §1, with “(a) Expression levels of NKA α1 mRNAs assayed by qRT-PCR. (b) HIV-1 Gag expression assayed by p24^CA ELISA of cell lysates (40 μg).” left out, “(d–g) CSs suppress HIV-1 gene expression independent of intracellular Ca^2+ flux/signaling and PI3K-AKT activation. HeLa rtTA-HIV(Gag-GFP) cells were pre-treated with either a chelator of [Ca^2+]i (5 µM BAPTA-AM, [Ca2+]ii), inhibitors of NCX Ca^2+-entry (5 µM KB-R7943, NCXi) or PI3K (10 μM LY294002, PI3Ki), or untreated (DMSO, no pathway inhibitor) for ~2 h prior to treatment with ~IC80s of CSs or DMSO for 4 h, and Dox induced for ~20 h.” left out, “Statistical comparisons in (a–g) were performed as illustrated (black/gray dashed lines) or described in Methods.” left out

## N=C(N)SCCc1ccc(OCc2ccc([N+](=O)[O-])cc2)cc1 [KB-R7943]
HIV-1 Gag-GFP expression
  reversal of CS inhibition of HIV-1 Gag-GFP expression by pathway inhibitor pre-treatment: did not reverse
[Ca^2+]i
  effect on CS-triggered rise in [Ca^2+]i: blocked
